According to the supplement of paper PMC13380429:
± gives the standard deviation of the averaged measurements.

Legend:
Details in all cases: 72 h
Vero E6 [1] = experiment: relative viability EC50 (midpoint between 100% and the lowest measured viability); higher = less toxic
Caco-2 [2] = experiment: as above
U2OS [3] = experiment: as above
HepG2 [4] = experiment: as above
Calu-3 [5] = experiment: as above
Vero E6 [6] = experiment: drug sensitivity score (DSS) for viability; higher = more toxic; extreme values may be limits of the assay
Caco-2 [7] = experiment: as above
U2OS [8] = experiment: as above
HepG2 [9] = experiment: as above
Calu-3 [10] = experiment: as above
Vero E6 [11] = experiment: cell viability relative to DMSO; higher = less toxic
Caco-2 [12] = experiment: as above
U2OS [13] = experiment: as above
HepG2 [14] = experiment: as above
Calu-3 [15] = experiment: as above

Row | SMILES | relative viability EC50 (Vero E6 [1]) | relative viability EC50 (Caco-2 [2]) | relative viability EC50 (U2OS [3]) | relative viability EC50 (HepG2 [4]) | relative viability EC50 (Calu-3 [5]) | drug sensitivity score (Vero E6 [6]) | drug sensitivity score (Caco-2 [7]) | drug sensitivity score (U2OS [8]) | drug sensitivity score (HepG2 [9]) | drug sensitivity score (Calu-3 [10]) | cell viability (Vero E6 [11]; 1 nM) | cell viability (Vero E6 [11]; 10 nM) | cell viability (Vero E6 [11]; 100 nM) | cell viability (Vero E6 [11]; 1000 nM) | cell viability (Vero E6 [11]; 10000 nM) | cell viability (Caco-2 [12]; 1 nM) | cell viability (Caco-2 [12]; 10 nM) | cell viability (Caco-2 [12]; 100 nM) | cell viability (Caco-2 [12]; 1000 nM) | cell viability (Caco-2 [12]; 10000 nM) | cell viability (U2OS [13]; 1 nM) | cell viability (U2OS [13]; 10 nM) | cell viability (U2OS [13]; 100 nM) | cell viability (U2OS [13]; 1000 nM) | cell viability (U2OS [13]; 10000 nM) | cell viability (HepG2 [14]; 1 nM) | cell viability (HepG2 [14]; 10 nM) | cell viability (HepG2 [14]; 100 nM) | cell viability (HepG2 [14]; 1000 nM) | cell viability (HepG2 [14]; 10000 nM) | cell viability (Calu-3 [15]; 1 nM) | cell viability (Calu-3 [15]; 10 nM) | cell viability (Calu-3 [15]; 100 nM) | cell viability (Calu-3 [15]; 1000 nM) | cell viability (Calu-3 [15]; 10000 nM)
1 | O=C(NCc1ccncc1)C12CC3CC(C1)CC(c1ccc(Cl)cc1)(C3)C2 | > 10 µM | > 10 µM | > 10 µM | > 10 µM | > 10 µM | 0 | 0 | 0 | 0 | 0.5 | 102% | 104% | 104% | 105% | 89.3% | 99.6% | 94.9% | 98.6% | 96% | 92.9% | 97.4% | 99.2% | 101% | 97.8% | 93.5% | 96.7% | 107% | 105% | 98% | 93.7% | 104% | 100% | 89% | 92.2% | 89.3%
2 | O=C(O)c1cc(C(=O)O)c(C(=O)N(Cc2cccc(Oc3ccccc3)c2)[C@H]2CCCc3ccccc32)cc1C(=O)O | > 10 µM | > 10 µM | > 10 µM | > 10 µM | > 10 µM | 0 | 0 | 0 | 0 | 0 | 98.2% | 102% | 96.9% | 98.9% | 102% | 106% | 99.1% | 90.4% | 99.8% | 103% | 102% | 94.4% | 99.4% | 91.3% | 109% | 98.5% | 106% | 102% | 107% | 98.4% | 102% | 98.8% | 103% | 104% | 106%
3 | O=C(c1c(O)nc2cc(Cl)ccc2c1O)C1CC1 | > 10 µM | > 10 µM | > 10 µM | > 10 µM | > 10 µM | 0 | 0 | 0 | 0 | 0 | 90.4% | 98.6% | 90.1% | 95.9% | 109% | 94.7% | 91.3% | 90.1% | 93.5% | 98.4% | 99.9% | 98.6% | 102% | 96% | 98.1% | 97.7% | 112% | 89.6% | 102% | 104% | 96.5% | 88.1% | 106% | 97.1% | 96.5%
4 | OCCC#Cc1nc(-c2ccc(F)cc2)c(-c2ccncc2)n1CCCc1ccccc1 | > 10 µM | > 10 µM | > 10 µM | > 10 µM | > 10 µM | 0 | 1.2 | 1.1 | 0 | 2.2 | 92.5% | 99.7% | 87% | 85% | 100% | 98.4% | 106% | 91.6% | 91.6% | 78.6% | 95.9% | 92% | 94.7% | 90.1% | 79.7% | 90.4% | 99.5% | 105% | 99.6% | 93.9% | 101% | 100% | 83.6% | 90.2% | 79.7%
5 | c1ccc(-c2n[nH]cc2-c2ccnc3ccccc23)nc1 | > 10 µM | > 10 µM | > 10 µM | > 10 µM | > 10 µM | 0 | 0 | 0 | 0 | 0 | 94.1% | 99.4% | 99.4% | 89.3% | 104% | 96.4% | 93.1% | 92.7% | 103% | 97.3% | 94.1% | 97.9% | 95.9% | 98.9% | 91.4% | 110% | 96.4% | 107% | 102% | 116% | 95.5% | 105% | 110% | 105% | 105%
6 | c1ccc2c(-c3cnn4cc(-c5ccc(N6CCNCC6)cc5)cnc34)ccnc2c1 | 1.44 µM | 1.94 µM | 1.75 µM | 1.57 µM | 2.69 µM | 9.7 | 7.2 | 8.7 | 9.3 | 6.4 | 90% | 102% | 98.1% | 71.5% | -0.1% | 107% | 87.7% | 120% | 85.9% | 11.4% | 95.1% | 94.2% | 92.1% | 80.4% | -0.1% | 99.3% | 111% | 94.5% | 75.7% | -0.1% | 95.8% | 98.6% | 112% | 93.9% | 0.4%
7 | CCOc1ccc(-n2c([C@@H](C)N(Cc3cccnc3)C(=O)Cc3ccc(F)c(C(F)(F)F)c3)nc3ncccc3c2=O)cc1 (racemic) | > 10 µM | > 10 µM | > 10 µM | > 10 µM | > 10 µM | 0 | 0 | 0 | 0 | 0 | 96% | 97.2% | 98.6% | 103% | 105% | 103% | 97.6% | 99.3% | 99.9% | 90% | 104% | 96% | 96.2% | 99.2% | 95.9% | 105% | 100% | 97.9% | 108% | 93.7% | 93.8% | 91% | 92.8% | 95.2% | 88.4%
8 | O=C1CC2(CCCC2)CC(=O)N1CCCCNC[C@H]1COc2ccccc2O1 (racemic) | > 10 µM | > 10 µM | > 10 µM | > 10 µM | > 10 µM | 0 | 0.3 | 0 | 0 | 0.3 | 103% | 101% | 101% | 97% | 98.6% | 97.8% | 98.2% | 93.8% | 98.3% | 86% | 104% | 102% | 101% | 104% | 97.8% | 99% | 112% | 106% | 101% | 110% | 96.9% | 103% | 96.9% | 94.2% | 85.3%
9 | CCOc1ccc(-n2c([C@@H](C)N(Cc3cccnc3)C(=O)Cc3ccc(OC(F)(F)F)cc3)nc3ncccc3c2=O)cc1 (racemic) [AMG-487-(+/-)] | > 10 µM | > 10 µM | > 10 µM | > 10 µM | > 10 µM | 0 | 0 | 0 | 0.45 ± 0.64 | 0.05 ± 0.071 | 97.8 ± 3.2% | 102 ± 3.9% | 101 ± 2.5% | 97.8 ± 0.57% | 102 ± 2.5% | 94 ± 2.5% | 98.2 ± 13% | 98.5 ± 2% | 101 ± 6% | 94.5 ± 8.4% | 100.5 ± 0.35% | 101 ± 4% | 97.3 ± 1.7% | 98.6 ± 0.85% | 99.6 ± 1.7% | 99.7 ± 1.1% | 98 ± 11% | 97.5 ± 8.5% | 95.2 ± 4.5% | 94 ± 13% | 100.8 ± 0.57% | 99.7 ± 0.99% | 93.3 ± 2.7% | 92.1 ± 3.4% | 98.5 ± 6%
10 | O=c1[nH]c(=O)n([C@H]2CCCO2)cc1F (racemic) [ftorafur] | > 10 µM | > 10 µM | > 10 µM | > 10 µM | > 10 µM | 0 | 0 | 0 | 0 | 0 | 96.1% | 103% | 91.2% | 102% | 108% | 93.5% | 103% | 106% | 90.7% | 100% | 99% | 95.9% | 102% | 98.1% | 105% | 87.2% | 111% | 91.5% | 110% | 113% | 96.5% | 95.2% | 93.9% | 94.4% | 99.2%
11 | CC1(C)[C@@H]2C[C@@H](O)[C@@](C)(O)[C@H]1C2 [2,3-cis/exo-pinanediol] | > 10 µM | > 10 µM | > 10 µM | > 10 µM | > 10 µM | 0 | 0 | 0 | 0 | 0 | 100% | 99.9% | 99.3% | 93.1% | 100% | 103% | 101% | 97.2% | 108% | 87.2% | 96.1% | 97.3% | 95.7% | 100% | 97.3% | 100% | 110% | 104% | 93.9% | 108% | 106% | 98.1% | 102% | 106% | 103%
12 | Nc1ccccc1S(N)(=O)=O [2-aminobenzenesulfonamide] | > 10 µM | > 10 µM | > 10 µM | > 10 µM | > 10 µM | 0 | 0 | 0 | 0 | 0.4 | 99.5% | 98.2% | 101% | 98.9% | 93.7% | 95.3% | 99.4% | 99.4% | 95.5% | 101% | 103% | 105% | 96.8% | 98.4% | 90.5% | 99% | 99.5% | 87.1% | 94.1% | 102% | 90.9% | 108% | 101% | 104% | 80.5%
13 | NC(=O)c1cccc(N)c1 [3-amino-benzamide] | > 10 µM | > 10 µM | > 10 µM | > 10 µM | > 10 µM | 0 | 0 | 0 | 0 | 0 | 95.7% | 102% | 102% | 102% | 103% | 98.4% | 96.2% | 93.3% | 89% | 96.8% | 99.8% | 106% | 98.3% | 104% | 98.9% | 104% | 81.8% | 107% | 101% | 99.8% | 106% | 111% | 102% | 103% | 97.2%
14 | C[C@@H](CN)CC(=O)O [3-methyl-GABA] | > 10 µM | > 10 µM | > 10 µM | > 10 µM | > 10 µM | 0 | 0.1 | 0 | 0 | 0 | 100% | 94.2% | 103% | 92.8% | 101% | 85.9% | 94.9% | 84.6% | 101% | 88.8% | 102% | 101% | 99.3% | 103% | 94.5% | 96.1% | 90.5% | 100% | 92.4% | 99% | 95.5% | 104% | 93.4% | 98.3% | 90.9%
15 | O=C(O)C(Cc1ccccc1[N+](=O)[O-])=NNc1nc(-c2ccc(Cl)c(Cl)c2)cs1 [4EGI-1] | > 10 µM | > 10 µM | > 10 µM | 1.96 µM | > 10 µM | 0 | 0.1 | 0 | 4.3 | 0 | 97.9% | 95.3% | 96.7% | 92% | 100% | 87.1% | 103% | 98.1% | 112% | 84.8% | 94.5% | 96.7% | 93.8% | 93.7% | 93.1% | 101% | 104% | 102% | 91.6% | 45.5% | 98.1% | 100% | 97.7% | 104% | 96.7%
